Experimental data reported in PubChem BioAssay (NCI).
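48-hour exposure; five concentrations; linearly interpolated endpoints. Abbreviation: GI50, concentration required for 50% inhibition of growth. TGI: total growth inhibition.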

What was measured:
Test in all cases: NCI-60 cell line screen, 48 h
[1] = test system: SK-MEL-5 melanoma
[2] = test system: SK-OV-3 ovarian
[3] = test system: A498 renal
[4] = test system: SR leukemia
[5] = test system: OVCAR-5 ovarian
[6] = test system: HS 578T breast
[7] = test system: LOX IMVI melanoma
[8] = test system: SW-620 colon
[9] = test system: KM12 colon
[10] = test system: NCI-H460 lung
[11] = test system: MCF7 breast
[12] = test system: OVCAR-4 ovarian
[13] = test system: UACC-62 melanoma
[14] = test system: HT29 colon
[15] = test system: SNB-75 CNS
[16] = test system: MDA-MB-231 breast
[17] = test system: CCRF-CEM leukemia
[18] = test system: HCC-2998 colon
[19] = test system: UO-31 renal
[20] = test system: TK-10 renal
[21] = test system: PC-3 prostate
[22] = test system: ACHN renal
[23] = test system: SK-MEL-28 melanoma
[24] = test system: IGROV1 ovarian
[25] = test system: 786-0 renal
[26] = test system: EKVX NSCLC
[27] = test system: BT-549 breast
[28] = test system: NCI-H522 lung
[29] = test system: SK-MEL-2 melanoma
[30] = test system: M14 melanoma
[31] = test system: K-562 leukemia
[32] = test system: T-47D breast
[33] = test system: UACC-257 melanoma
[34] = test system: OVCAR-8 ovarian
[35] = test system: A549 NSCLC
[36] = test system: NCI/ADR-RES ovarian
[37] = test system: NCI-H23 lung
[38] = test system: HOP-92 NSCLC
[39] = test system: HCT-116 colon
[40] = test system: SF-268 CNS
[41] = test system: SN12C renal
[42] = test system: MOLT-4 leukemia
[43] = test system: RPMI-8226 leukemia
[44] = test system: SF-295 CNS
[45] = test system: SF-539 CNS
[46] = test system: SNB-19 CNS
[47] = test system: MALME-3M melanoma
[48] = test system: HOP-62 NSCLC
[49] = test system: HL-60(TB) leukemia
[50] = test system: DU-145 prostate
[51] = test system: COLO 205 colon
[52] = test system: U251 CNS
[53] = test system: OVCAR-3 ovarian
[54] = test system: NCI-H226 lung
[55] = test system: HCT-15 colon
[56] = test system: MDA-MB-435

## COc1cnc2c(c1)C(=O)c1c-2n(CCCNC2=NCCS2)c(=O)c2cc(F)ccc12
[1]
  GI50: 342 nM
  TGI: 1440 nM
[2]
  GI50: 182 nM
  TGI: 914 nM
[3]
  GI50: 264 nM
  TGI: 1630 nM
[4]
  GI50: 49.9 nM
  TGI: 2040 nM
[5]
  GI50: 795 nM
  TGI: 13300 nM
[6]
  GI50: 12000 nM
  TGI: 32400 nM
[7]
  GI50: 111 nM
  TGI: 1120 nM
[8]
  GI50: 120 nM
  TGI: 3340 nM
[9]
  GI50: 577 nM
  TGI: 3680 nM
[10]
  GI50: 35.6 nM
  TGI: 1110 nM
[11]
  GI50: 33 nM
  TGI: 1660 nM
[12]
  GI50: 463 nM
  TGI: 2360 nM
[13]
  GI50: 344 nM
  TGI: 14600 nM
[14]
  GI50: 75.3 nM
  TGI: 2020 nM
[15]
  GI50: 358 nM
  TGI: 18900 nM
[16]
  GI50: 1140 nM
  TGI: 2570 nM
[17]
  GI50: 40.2 nM
  TGI: 5490 nM
[18]
  GI50: 12800 nM
  TGI: 28600 nM
[19]
  GI50: 108 nM
  TGI: 1120 nM
[20]
  GI50: 1120 nM
  TGI: 2520 nM
[21]
  GI50: 208 nM
  TGI: 18700 nM
[22]
  GI50: 49.6 nM
  TGI: 1910 nM
[23]
  GI50: 12100 nM
  TGI: 24900 nM
[24]
  GI50: 434 nM
  TGI: 15500 nM
[25]
  GI50: 271 nM
  TGI: 1310 nM
[26]
  GI50: 897 nM
  TGI: 24500 nM
[27]
  GI50: 1080 nM
  TGI: 17500 nM
[28]
  GI50: 38.1 nM
  TGI: 1280 nM
[29]
  GI50: 15800 nM
  TGI: 32700 nM
[30]
  GI50: 170 nM
  TGI: 1320 nM
[31]
  GI50: 249 nM
  TGI: 2920 nM
[32]
  GI50: 76.2 nM
  TGI: 17200 nM
[33]
  GI50: 456 nM
  TGI: 20400 nM
[34]
  GI50: 132 nM
  TGI: 4720 nM
[35]
  GI50: 155 nM
  TGI: 1750 nM
[36]
  GI50: 340 nM
  TGI: 11900 nM
[37]
  GI50: 220 nM
  TGI: 1660 nM
[38]
  GI50: 563 nM
  TGI: 19700 nM
[39]
  GI50: 82.5 nM
  TGI: 1830 nM
[40]
  GI50: 135 nM
  TGI: 2580 nM
[41]
  GI50: 238 nM
  TGI: 12300 nM
[42]
  GI50: 42.1 nM
  TGI: 514 nM
[43]
  GI50: 70.2 nM
  TGI: 1210 nM
[44]
  GI50: 51.8 nM
  TGI: 891 nM
[45]
  GI50: 305 nM
  TGI: 1090 nM
[46]
  GI50: 150 nM
  TGI: 2610 nM
[47]
  GI50: 598 nM
  TGI: 13200 nM
[48]
  GI50: 59.5 nM
  TGI: 2600 nM
[49]
  GI50: 381 nM
  TGI: 1560 nM
[50]
  GI50: 144 nM
  TGI: 1630 nM
[51]
  GI50: 201 nM
  TGI: 1910 nM
[52]
  GI50: 44.2 nM
  TGI: 1350 nM
[53]
  GI50: 567 nM
  TGI: 2270 nM
[54]
  GI50: 247 nM
  TGI: 1660 nM
[55]
  GI50: 1210 nM
  TGI: 4530 nM
[56]
  GI50: 750 nM
  TGI: 2370 nM
